These results are taken from US20120196854A1, “PHARMACEUTICAL COMPOSITION COMPRISING AROMATIC HETEROCYCLIC COMPOUND” (Kyowa Hakko Kirin Co., Ltd., priority 2009, published 2012).

In the first test the test system is PGD2 production in mouse ear. The experiment in a line: Inhibitory effect on PGD2 production in mouse ear caused by allergic reaction. To be noted: 3 mg/kg orally, 1 hour before inducing antigen-antibody reaction; BALB/c mice. Type of test: in vivo. Here is the method:
A test of PGD2 production in the mouse ear caused by allergic reaction was conducted according to the evaluation method of passive cutaneous anaphylaxis in the mouse ear by Inagaki et al. (Int.Arch.AllergyAppl. Immunol., 1988, 86 (3), 325-30) with some alteration. […]
One hour after the induction of antigen-antibody reaction, the mice were killed by cervical dislocation and the ears were cut off with scissors. […] The harvested pieces of ear tissue were immediately frozen in liquid nitrogen, and preserved at −80° C. until measurement of the quantity of PGD2.
The quantity of PGD2 was determined in the following manner. […]
As for `Cc1cccc(-n2nc3ccc4nc(-c5ccco5)cc(C(=O)O)c4c3n2)c1` [Compound 102, 7-(furan-2-yl)-2-(3-methylphenyl)-2H-[1,2,3]triazolo[4,5-f]quinoline-9-carboxylic acid], the “inhibition of PGD2 production in mouse ear caused by allergic reaction” value is 84%.

For a further test, the target named is T1, human H-PGDS (Homo sapiens, UniProt O60760).
T1 construct: purchased Cayman Chemical 10006593
T1 sequence (O60760 whole entry): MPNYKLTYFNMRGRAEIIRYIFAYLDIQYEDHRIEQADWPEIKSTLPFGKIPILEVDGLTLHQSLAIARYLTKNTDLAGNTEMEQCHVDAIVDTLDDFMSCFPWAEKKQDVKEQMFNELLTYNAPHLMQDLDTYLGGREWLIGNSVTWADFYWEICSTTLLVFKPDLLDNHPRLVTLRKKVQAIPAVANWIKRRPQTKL
As to the kind of experiment: H-PGDS inhibitory activity (Prostaglandin D Synthase Inhibitor Screening Assay Kit). Type of test: biochemical. As to conditions: at a concentration of 1 μmol/L; read-out: H-PGDS inhibitory rate. Here is the method: The H-PGDS inhibitory activity of Compound (I) was calculated according to the following protocol attached to Prostaglandin D Synthase Inhibitor Screening Assay Kit (Cat. No. 10006595, Cayman Chemical, Ann Arbor, Mich., USA).
(§1) First, to a 96-well round-bottom plate (Cat. No. 3882-096, Asahi Techno Glass, Chiba), 60 μL/well of an enzyme assay buffer (0.1 mol/L Tris-HCl, pH 8.0), 10 μL/well of a human H-PGDS [Cat. No. 10006593 (human), Cayman Chemical, Ann Arbor, Mich., USA] at a final concentration of 0.125 μg/mL, 10 μL/well of reduced glutathione at a final concentration of 1 mmol/L, and 10 μL/well of Compound (I) diluted with the enzyme assay buffer were added and lightly mixed. The plate was allowed to stand at room temperature for 10 minutes, and then 10 μL/well of prostaglandin H2(PGH2) (Cat. No. 17020, Cayman Chemical) at a final concentration of 50 μmol/L was added thereto to start enzyme reaction. The reaction was allowed to proceed with mixing by a plate mixer for 1 minute. After the enzyme reaction, 10 μL/well of a 4 mg/mL FeCl2-HCl solution prepared by dissolving FeCl2 in 1 mol/L hydrochloric acid was added to stop the reaction and reduce PGH2 simultaneously. The enzyme reaction solution (100 μL/well) was transferred to a 96-well UV-Star half area plate (Cat. No. 675801, Greiner, Frickenhausen, Germany), and measured for absorbance at 232 nm using a microplate reader Power Wave (BioTek Instrument Inc., Winooski, Vt., USA).
The H-PGDS inhibitory activity (inhibitory rate) of Compound (I) was calculated by the following formula.
The H-PGDS inhibitory activity of Compound 133 was calculated according to the following protocol attached to Prostaglandin D Synthase Inhibitor Screening Assay Kit (Cat. No. 10006595, Cayman Chemical, Ann Arbor, Mich., USA).
as §1, with “133” for “(I)”
The H-PGDS inhibitory activity (inhibitory rate) of Compound 133 was calculated according to the method in Test Example 1.
Turning to `O=C(O)c1cc(-c2ccc(NS(=O)(=O)c3ccccc3)cc2)nc2ccc3nc(-c4ccccc4)oc3c12` [Compound 53, 7-(4-benzenesulfonylaminophenyl)-2-phenyloxazolo[5,4-f]-quinoline-9-carboxylic acid], the inhibition at 1 µM is not below 80%.

On to `Cc1cccc(-n2nc3ccc4nc(-c5ccco5)cc(C(=O)O)c4c3n2)c1` [Compound 102, 7-(furan-2-yl)-2-(3-methylphenyl)-2H-[1,2,3]triazolo[4,5-f]quinoline-9-carboxylic acid], for which the inhibition at 1 µM was not below 80%.

Turning to `CS(=O)(=O)NC(=O)c1ccc(-c2cc(C(=O)O)c3c(ccc4nn(-c5ccccc5)nc43)n2)cc1` [Compound 13, 7-(4-methanesulfonylaminocarbonylphenyl)-2-phenyl-2H[1,2,3]triazolo[4,5-f]quinoline-9-carboxylic acid], the inhibition at 1 µM was not below 80%.

For the molecule `O=C(O)c1cc(-c2ccc(NS(=O)(=O)c3ccccc3)cc2)nc2ccc3nn(-c4ccccc4)nc3c12` [Compound 15, 7-(4-benzenesulfonylaminophenyl)-2-phenyl-2H[1,2,3]triazolo[4,5-f]quinoline-9-carboxylic acid], the inhibition at 1 µM is not below 80%.

`O=C(NS(=O)(=O)c1ccccc1)c1cccc(-c2cc(C(=O)O)c3c(ccc4nn(-c5ccccc5)nc43)n2)c1` [Compound 26, 7-(3-benzenesulfonylaminocarbonylphenyl)-2-phenyl-2H[1,2,3]triazolo[4,5-f]quinoline-9-carboxylic acid]: the inhibition at 1 µM was not below 80%.

For the molecule `O=C(O)c1cc(-c2cc(C(=O)O)c3c(ccc4nn(-c5cccc(F)c5)nc43)n2)c[nH]1` [Compound 76, 7-(5-carboxy-1H-pyrrol-3-yl)-2-(3-fluorophenyl)-2H-[1,2,3]-triazolo[4,5-f]quinoline-9-carboxylic acid], the inhibition at 1 µM was not below 80%.

`O=C(O)c1cc(-c2cnn(Cc3ccccc3)c2)nc2ccc3nn(-c4cccc(F)c4)nc3c12` [Compound 116, 7-(1-benzyl-1H-pyrazol-4-yl)-2-(3-fluorophenyl)-2H-[1,2,3]-triazolo[4,5-f]quinoline-9-carboxylic acid]: the inhibition at 1 µM is not below 80%.

In the case of `CS(=O)(=O)NC(=O)c1cccc(-c2cc(C(=O)O)c3c(ccc4nn(-c5ccccc5)nc43)n2)c1` [Compound 17, 7-(3-methanesulfonylaminocarbonylphenyl)-2-phenyl-2H[1,2,3]triazolo[4,5-f]quinoline-9-carboxylic acid], the inhibition at 1 µM is not below 80%.

As for `O=C(NS(=O)(=O)c1ccccc1)c1ccc(-c2cc(C(=O)O)c3c(ccc4nn(-c5ccccc5)nc43)n2)cc1` [Compound 28, 7-(4-benzenesulfonylaminocarbonylphenyl)-2-phenyl-2H[1,2,3]triazolo[4,5-f]quinoline-9-carboxylic acid], the inhibition at 1 µM was not below 80%.

For the molecule `CS(=O)(=O)Nc1ccc(-c2cc(C(=O)O)c3c(ccc4nn(-c5ccccc5)nc43)n2)cc1` [Compound 6, 7-(4-methanesulfonylaminophenyl)-2-phenyl-2H[1,2,3]triazolo[4,5-f]quinoline-9-carboxylic acid], the inhibition at 1 µM is not below 80%.
